The values below come from patent EP4692091A1, “CA[…], AND PHARMACEUTICAL COMPOSITION, PREPARATION METHOD THEREFOR AND USE THEREOF” (Changchun Genescience Pharmaceutical Co., Ltd., priority 2023, dated 2024).

Data set [1] is described as follows: Stability of compounds in human plasma. Type of data set: in vitro ADME. Particulars: 37°C, 5 µmol/L; for Residual percentage (%): 0 h; for remaining at 1 h, 5 µM / remaining at 2 h, 5 µM / remaining at 6 h, 5 µM / remaining at 24 h, 5 µM: read-out: Residual percentage (%). As to the method: • (1) 199 µL of human plasma was added to the culture plate of each cell. The culture plate was preheated to 37°C, and kept at this temperature for 15 min. • (2) After preincubation, 1 µL of 1 mmol/L each test compound and 1 µL of 1 mmol/L control compound were added to 199 µL of plasma, so that a final concentration of each test compound was 5 µmol/L and that of the control compound was 5 µmol/L. The final concentration of the organic solvent was 0.5%. The experiment would be duplicated twice. • (3) Reaction samples were incubated at 37°C. • (4) The reaction was stopped by adding 600 µL of cold methanol containing the internal standard at 0, 1, 2, 6, and 24 h. Each sample was vortex mixed for 10 min, and then centrifuged at 3,220 g for 30 min to precipitate the protein. […] Based on the signal response and peak shapes of liquid chromatography-mass spectrometry (LC-MS), the supernatant would be diluted with ultrapure water.
All calculations were performed using Microsoft Excel. The peak area ratio was determined from the chromatogram of extracted ions. The percentage of compounds remaining at each time point was calculated as per the following formula: Residual percentagetmin (%) = peak area ratiotmin /peak areat0 × 100 [formula]

Data set [2] relates to MDA-MB-468. The data set is described as follows: Inhibition of proliferation of MDA-MB-468 cells by test compounds (CellTiter-Glo, 72 h). Type of data set: cell-based. The note with it: MDA-MB-468, 72 h incubation. As to the method:
3: Test method • (1) Cell plating: first, tumor cells MDA-MB-468 were cultured using a corresponding culture medium, trypsinized, centrifuged, resuspended for counting, adjusted to an appropriate concentration, and then plated on a 384-well plate. • (2) Co-incubation of the compounds and tumor cells: after the cells adhered to the wall, 100 nL of a diluted bioactive substance (test compound) was added to the cell culture plate using ECHO, the final concentration of DMSO in wells of the cell plate was 0.33%, and the incubation was performed in an incubator at 37°C with […] for 72 h. • (3) After the incubation was complete, 30 µL of a CTG reagent (CelltiterGlo kit) was added to each well. The culture was oscillated on a fast oscillator for 2 min, centrifuged at 1,000 rpm for 1 min, and kept away from light at room temperature for 30 min. The chemiluminescence signal value was read using an Envision instrument. • (4) Cell viability detection: IC50 was calculated using GraphPad Prism 8 software, and the IC50 of the compounds was obtained using the following nonlinear fitting formula (see Table 2): • 6. Y=Bottom+(Top-Bottom)/(1+10^((LogIC50-X)*HillSlope)) • 7. […] Table 2 Antiproliferative activity of test compounds on MDA-MB-468
A general note: Cellular ATP, detected with luciferase, serves as a proxy for viable cell number.

In data set [3] the test system is NCI-N87. The data set is described as follows: Inhibition of proliferation of NCI-N87 cells by test compounds (CellTiter-Glo, 72 h). Type of data set: cell-based. The note with it: NCI-N87, 72 h incubation. As for the experimental part: 3: Test method (1) Cell plating: first, tumor cells NCI-N87 were cultured using a corresponding culture medium, trypsinized, centrifuged, resuspended for counting, adjusted to an appropriate concentration, and then plated on a 384-well plate. (2) Co-incubation of the compounds and tumor cells: after the cells adhered to the wall, 100 nL of a diluted bioactive substance (test compound) was added to the cell culture plate using ECHO, the final concentration of DMSO in wells of the cell plate was 0.33%, and the incubation was performed in an incubator at 37°C with […] for 72 h. (3) After the incubation was complete, 30 µL of a CTG reagent (CelltiterGlo kit) was added to each well. The culture was oscillated on a fast oscillator for 2 min, centrifuged at 1,000 rpm for 1 min, and kept away from light at room temperature for 30 min. The chemiluminescence signal value was read using an Envision instrument. (4) Cell viability detection: IC50 was calculated using GraphPad Prism 8 software, and the IC50 of the compounds was obtained using the following nonlinear fitting formula (see Table 3) : 11. Y=Bottom+(Top-Bottom)/(1+10^((LogIC50-X)*HillSlope)) 12. […] Table 3 Antiproliferative activity of test compounds on cells NCI-N87

Data set [4] can be described thus: Stability of compounds in human plasma. Type of data set: in vitro ADME. The note with it: 37°C, 5 µmol/L, read-out: Residual percentage (%).
In data set [5] the test system is SK-BR-3. Put plainly: Inhibition of proliferation of SK-BR-3 cells by compounds (CellTiter-Glo, 72 h). Type of data set: cell-based. The note with it: SK-BR-3, 72 h incubation. As for the experimental part: 3: Test method (1) Cell plating: first, tumor cells SK-BR-3 were cultured using a corresponding culture medium, trypsinized, centrifuged, resuspended for counting, adjusted to an appropriate concentration, and then plated on a 384-well plate. (2) Co-incubation of the compounds and tumor cells: after the cells adhered to the wall, 100 nL of a diluted bioactive substance (test compound) was added to the cell culture plate using ECHO, the final concentration of DMSO in wells of the cell plate was 0.33%, and the incubation was performed in an incubator at 37°C with 5% CO2 for 72 h. (3) After the incubation was complete, 30 µL of a CTG reagent (CelltiterGlo kit) was added to each well. The culture was oscillated on a fast oscillator for 2 min, centrifuged at 1,000 rpm for 1 min, and kept away from light at room temperature for 30 min. The chemiluminescence signal value was read using an Envision instrument. (4) Cell viability detection: IC50 was calculated using GraphPad Prism 8 software, and the IC50 of the compounds was obtained using the following nonlinear fitting formula (see Table 1) : 1. Y=Bottom+(Top-Bottom)/(1+10^((LogIC50-X)*HillSlope)) 2. […] Table 1 Antiproliferative activity of test compounds on SK-BR-3

As usually defined, the IC50 is the midpoint of a concentration-inhibition curve. Regarding `CC[C@@]1(O)C(=O)OCc2c1cc1n(c2=O)Cc2c-1nc1cc(F)c(C)c3c1c2C(NC(=O)C[C@@H](C)O)CCC3` (single isomer, unassigned) [6-2], in data set [1], the “Residual percentage (%)” value amounted to 100.00%; the remaining at 1 h, 5 µM worked out at 96.6%; the remaining at 2 h, 5 µM was found to be 86.2%; the remaining at 6 h, 5 µM came out at 89%. The remaining at 24 h, 5 µM in data set [1] stood at 87%. This compound also showed an IC50 in data set [2] (Homo sapiens, MDA-MB-468, 72 h) of 6.5 nM. In data set [3] (Homo sapiens, NCI-N87, 72 h), this compound yielded an IC50 of 6.8 nM. For the same compound, the remaining at 4 h, 5 µM in data set [4] came to 93.7%. In data set [5] (Homo sapiens, SK-BR-3, 72 h), this compound gave an IC50 of 7.3 nM.
For the compound `CC[C@@]1(O)C(=O)OCc2c1cc1n(c2=O)Cc2c-1nc1cc(F)c(C3CC3)c3c1c2C(NC(=O)C[C@@H](C)O)CC3` (single isomer, unassigned) [17-2], in data set [1], the “Residual percentage (%)” value came to 100.00%; the remaining at 1 h, 5 µM was 90.1%; the remaining at 2 h, 5 µM amounted to 89.3%; the remaining at 6 h, 5 µM is 97.1%. The remaining at 24 h, 5 µM in data set [1] was 102%. This compound displayed an IC50 in data set [2] of 8.1 nM. Further, half-maximal inhibition in data set [3] (IC50) was put at 5.3 nM. Besides, the remaining at 4 h, 5 µM in data set [4] was determined as 93.8%. Also, the IC50 in data set [5] worked out at 6.6 nM.
As for `CC[C@@]1(O)C(=O)OCc2c1cc1n(c2=O)Cc2c-1nc1cc(F)c(C)c3c1c2[C@@H](NC(=O)[C@@H](O)C1CC1)CCC3` [11-2, (S)-2-cyclopropyl-N-((1S,10S)-10-ethyl-6-fluoro-10-hydroxy-5-methyl-11,14-dioxo-1,2,3,4,10,11,14,16-octahydro-13H-cyclohepta[de]pyrano[3',4':6,7]indolizino[1,2-b]quinolin-1-yl)-2-hydroxyacetamide], in data set [1], the “Residual percentage (%)” value was 100.00%; the remaining at 1 h, 5 µM worked out at 96.8%; the remaining at 2 h, 5 µM was 92.1%; the remaining at 6 h, 5 µM is 94.5%. In addition, in data set [1], the remaining at 24 h, 5 µM stood at 88.8%. Also, in data set [4], the remaining at 4 h, 5 µM was 93.4%.
In the case of “(S)-N-((1S,10S)-10-ethyl-6-fluoro-10-hydroxy-5-methyl-11,14-dioxo-1,2,3,4,10,11,14,16-octahydro-13H-cyclohepta[3',4':6,7]indolizino[1,2-b]quinolin-1-yl)-3-hydroxy-4-methylpentanamide [37-1]”, the IC50 in data set [2] was found to be 19 nM; in data set [3], 8.6 nM; in data set [5], 19 nM.
